Measured values published in PubChem BioAssay (NCI).
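Growth conditions: 96-well plates. Treatment: test compound, 48 hours, 5 concentrations. Analysis: linear interpolation between bracketing concentrations; unreached endpoints set to highest concentration. TGI: total growth inhibition.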

Tests used:
Assay in all cases: NCI anticancer screen, dose series, 48 h
[1] = test system: PC-3 prostate
[2] = test system: HS 578T breast
[3] = test system: SF-268 CNS
[4] = test system: MOLT-4 leukemia
[5] = test system: NCI-H522 lung
[6] = test system: ACHN renal
[7] = test system: SK-MEL-2 melanoma
[8] = test system: RPMI-8226 leukemia
[9] = test system: NCI-H460 lung
[10] = test system: COLO 205 colon
[11] = test system: A498 renal
[12] = test system: DU-145 prostate
[13] = test system: LOX IMVI melanoma
[14] = test system: OVCAR-8 ovarian
[15] = test system: U251 CNS
[16] = test system: EKVX NSCLC
[17] = test system: IGROV1 ovarian
[18] = test system: HOP-92 NSCLC
[19] = test system: HCT-116 colon
[20] = test system: MCF7 breast
[21] = test system: OVCAR-4 ovarian
[22] = test system: SR leukemia
[23] = test system: HCT-15 colon
[24] = test system: SN12C renal
[25] = test system: M14 melanoma
[26] = test system: CAKI-1 renal
[27] = test system: OVCAR-3 ovarian
[28] = test system: SK-OV-3 ovarian
[29] = test system: 786-0 renal
[30] = test system: SNB-75 CNS
[31] = test system: A549 NSCLC
[32] = test system: UO-31 renal
[33] = test system: NCI/ADR-RES ovarian
[34] = test system: UACC-257 melanoma
[35] = test system: MDA-MB-231 breast
[36] = test system: HCC-2998 colon
[37] = test system: KM12 colon
[38] = test system: SNB-19 CNS
[39] = test system: K-562 leukemia
[40] = test system: RXF 393 renal
[41] = test system: MALME-3M melanoma
[42] = test system: TK-10 renal
[43] = test system: SF-295 CNS
[44] = test system: MDA-N
[45] = test system: SF-539 CNS
[46] = test system: HT29 colon
[47] = test system: HOP-62 NSCLC
[48] = test system: NCI-H23 lung
[49] = test system: SK-MEL-28 melanoma
[50] = test system: T-47D breast
[51] = test system: MDA-MB-435
[52] = test system: OVCAR-5 ovarian
[53] = test system: CCRF-CEM leukemia
[54] = test system: BT-549 breast
[55] = test system: UACC-62 melanoma
[56] = test system: SK-MEL-5 melanoma
[57] = test system: NCI-H226 lung
[58] = test system: HL-60(TB) leukemia
[59] = test system: SW-620 colon

## C/C(=C\COc1cc(O)c2c(c1)C(=O)c1cc(C)cc(O)c1C2=O)CCC1OC1(C)C (stereo not drawn)
[1]
  TGI: > 100 µM
[2]
  TGI: > 100 µM
[3]
  TGI: > 100 µM
[4]
  TGI: > 100 µM
[5]
  TGI: > 100 µM
[6]
  TGI: > 100 µM
[7]
  TGI: > 100 µM
[8]
  TGI: > 100 µM
[9]
  TGI: > 100 µM
[10]
  TGI: > 100 µM
[11]
  TGI: > 100 µM
[12]
  TGI: > 100 µM
[13]
  TGI: > 100 µM
[14]
  TGI: > 100 µM
[15]
  TGI: > 100 µM
[16]
  TGI: > 100 µM
[17]
  TGI: > 100 µM
[18]
  TGI: > 100 µM
[19]
  TGI: > 100 µM
[20]
  TGI: > 100 µM
[21]
  TGI: > 100 µM
[22]
  TGI: > 100 µM
[23]
  TGI: > 100 µM
[24]
  TGI: > 100 µM
[25]
  TGI: > 100 µM
[26]
  TGI: 96.5 µM
[27]
  TGI: > 100 µM
[28]
  TGI: > 100 µM
[29]
  TGI: > 100 µM
[30]
  TGI: > 100 µM
[31]
  TGI: > 100 µM
[32]
  TGI: > 100 µM
[33]
  TGI: > 100 µM
[34]
  TGI: > 100 µM
[35]
  TGI: > 100 µM
[36]
  TGI: > 100 µM
[37]
  TGI: > 100 µM
[38]
  TGI: > 100 µM
[39]
  TGI: > 100 µM
[40]
  TGI: 70.8 µM
[41]
  TGI: > 100 µM
[42]
  TGI: > 100 µM
[43]
  TGI: > 100 µM
[44]
  TGI: > 100 µM
[45]
  TGI: > 100 µM
[46]
  TGI: > 100 µM
[47]
  TGI: > 100 µM
[48]
  TGI: > 100 µM
[49]
  TGI: > 100 µM
[50]
  TGI: > 100 µM
[51]
  TGI: > 100 µM
[52]
  TGI: > 100 µM
[53]
  TGI: > 100 µM
[54]
  TGI: > 100 µM
[55]
  TGI: > 100 µM
[56]
  TGI: > 100 µM

## C/C=C(\C)[C@@H](O)C(=O)O[C@@H]1CC(C(C)(C)O)[C@](C)(CCC(=O)OC)[C@H]2[C@H](OC(=O)[C@H](O)[C@H](C)CC)C[C@]3(C)C(=CC[C@H]3[C@H]3CO[C@H](C=C(C)C)C3)[C@]12C (stereo partly drawn)
[1]
  TGI: 34.9 µM
[2]
  TGI: 41 µM
[3]
  TGI: 36.8 µM
[4]
  TGI: 48.2 µM
[5]
  TGI: 29.5 µM
[57]
  TGI: 50.9 µM
[6]
  TGI: 34.1 µM
[7]
  TGI: 32.4 µM
[8]
  TGI: 38.3 µM
[9]
  TGI: 38.6 µM
[11]
  TGI: 60.2 µM
[12]
  TGI: 98.5 µM
[13]
  TGI: 31.4 µM
[14]
  TGI: 33.9 µM
[15]
  TGI: 33.4 µM
[16]
  TGI: 29.8 µM
[17]
  TGI: > 100 µM
[18]
  TGI: 71.7 µM
[19]
  TGI: 31.9 µM
[20]
  TGI: 42.1 µM
[21]
  TGI: 41.8 µM
[58]
  TGI: 40.6 µM
[22]
  TGI: 40.2 µM
[23]
  TGI: 37.4 µM
[25]
  TGI: 32.8 µM
[26]
  TGI: 87.2 µM
[27]
  TGI: 44.2 µM
[29]
  TGI: 29.5 µM
[30]
  TGI: 37.6 µM
[31]
  TGI: 61.7 µM
[32]
  TGI: 33.5 µM
[33]
  TGI: 30.5 µM
[34]
  TGI: 49.9 µM
[35]
  TGI: 38.4 µM
[36]
  TGI: 29.7 µM
[37]
  TGI: 65.3 µM
[39]
  TGI: 42.4 µM
[40]
  TGI: 32.9 µM
[42]
  TGI: 61.7 µM
[43]
  TGI: > 100 µM
[44]
  TGI: 35.4 µM
[45]
  TGI: 35.8 µM
[46]
  TGI: 34.5 µM
[59]
  TGI: 58 µM
[47]
  TGI: > 100 µM
[48]
  TGI: 37.7 µM
[49]
  TGI: 40.3 µM
[50]
  TGI: 87.1 µM
[51]
  TGI: 52.5 µM
[52]
  TGI: 43.2 µM
[54]
  TGI: 32.7 µM
[56]
  TGI: 33.2 µM
